{
  "source": "patent US5591757A",
  "about": "“Dihydropyridine composition” (Yamanouchi Pharmaceutical Co., Ltd., priority 1984, dated 1997)",
  "key": {"Beta-adrenoceptor [1]": {"target": "T1, Beta-adrenoceptor (Rattus norvegicus, UniProt P18090)", "T1 sequence (P18090 whole entry)": "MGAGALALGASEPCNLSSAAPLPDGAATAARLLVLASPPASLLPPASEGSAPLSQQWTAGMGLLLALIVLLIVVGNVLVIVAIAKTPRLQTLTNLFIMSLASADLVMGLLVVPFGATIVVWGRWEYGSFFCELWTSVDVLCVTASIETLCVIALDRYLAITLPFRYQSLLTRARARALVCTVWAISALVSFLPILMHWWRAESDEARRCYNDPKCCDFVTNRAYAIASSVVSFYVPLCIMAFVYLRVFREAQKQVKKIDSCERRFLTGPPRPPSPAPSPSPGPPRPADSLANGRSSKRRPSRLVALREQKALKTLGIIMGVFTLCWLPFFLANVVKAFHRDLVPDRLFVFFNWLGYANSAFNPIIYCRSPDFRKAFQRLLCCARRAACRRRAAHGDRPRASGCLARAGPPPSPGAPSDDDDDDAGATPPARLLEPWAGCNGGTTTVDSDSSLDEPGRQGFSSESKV", "experiment": "cell-based", "conditions": "isolated rat right atria, (-)-isoproterenol-induced positive chronotropy; read-out: KB (antagonist dissociation constant)", "description": "Beta-adrenoceptor blocking effect of test compounds was estimated by antagonism of (-)-isoproterenol-induced positive chronotropy."}, "dog coronary artery": {"system": "dog coronary artery", "experiment": "Effect on 3,4-diaminopyridine (3,4-DAP)-induced rythmic contraction", "assay_type": "cell-based", "conditions": "Canis lupus familiaris, read-out: IC50, 3,4-DAP contraction", "procedure": "The ring segments were cannulated with two triangle stainless-steel hooks and suspended vertically in Krebs-Henseleit solution under the same condition described previously. Preparations were set up under a resting tension of 1.0 g and rhythmic contractions were induced by application of 10 mM 3,4-DAP. Test compound was cumulatively added into the medium. IC50 was estimated from dose-response curves (Table 2, column 2)."}, "[2]": {"system": "mean arterial blood pressure (MBP) and coronary blood flow (Cor. BF)", "experiment": "Hemodynamic effects in anesthetized open-chest dogs (i.v.)", "assay_type": "in vivo, mongrel dogs", "conditions": "Canis lupus familiaris; for change in vivo at 0.3 mg/kg: 0.3 mg/kg iv, anesthetized dogs; for change in vivo at 0.1 mg/kg: iv", "procedure": "Mongrel dogs of either sex were anesthetized with pentobarbital sodium (30 mg/kg iv). The animals were artificially ventilated with room air. The chest was opened at the left 4th intercostal space. Mean arterial blood pressure (MBP), heart rate (HR), left ventricular pressure (LVP), max. dLVP/dt, mean pulmonary arterial blood pressure (MPAP), cardiac output (CO) and coronary blood flow (Cor. BF) were measured. The test compounds were injected into the femoral vein. […] BF from control values induced by intravenous injection of test compounds."}, "Beta-adrenoceptor [3]": {"target": "T1, Beta-adrenoceptor", "experiment": "Intrinsic sympathomimetic activity (ISA) in reserpinized rats", "assay_type": "in vivo, male Wistar rats", "design": "The rats were anesthetized with pentobarbital sodium; from tissue; host or cells: heart in the living anesthetized male Wistar rat (reserpine-pretreated, vagotomized)", "conditions": "reserpine-pretreated rats, iv", "procedure": "(§1) The rats were pretreated with reserpine (8 mg/kg ip), 18 hr before experiments. […] The heart rate was measured with a cardiotachometer triggered by the QRS of the ECG (lead II) and recorded on a polygraph. After the Control response to isoproterenol at a dose of 0.1 μg/kg iv was obtained, the test compound was injected iv in increasing doses at 20 min intervals.\nIn this series of experiments, intrinsic sympathomimetic activity (ISA) was also evaluated."}, "calcium channels": {"target": "calcium channels", "experiment": "[^3 H]-nitrendipine binding to rat brain membrane"}, "rabbit thoracic aorta": {"system": "rabbit thoracic aorta", "experiment": "Effect on KCl-induced contraction of rabbit aorta", "conditions": "Oryctolagus cuniculus, read-out: IC50, K contraction"}, "Beta-adrenoceptor [4]": {"target": "T1, Beta-adrenoceptor", "experiment": "Beta-adrenoceptor blocking effect in reserpinized rats (isoproterenol chronotropy)", "assay_type": "in vivo, male Wistar rats", "design": "The rats were anesthetized with pentobarbital sodium; from tissue; host or cells: heart in the living anesthetized male Wistar rat (reserpine-pretreated, vagotomized)", "conditions": "isoproterenol 0.1 μg/kg iv, cumulative iv doses, read-out: Beta-Blocking ED50 (50% blockade of positive chronotropic response to isoproterenol)", "procedure": "as §1"}, "left coronary artery": {"system": "left coronary artery", "experiment": "Coronary vasodilating effects in dogs (intracoronary)", "assay_type": "in vivo, mongrel dogs", "procedure": "Mongrel dogs of either sex were anesthetized and ventilated as previously described. A thoracotomy was performed at the 4th intercostal space. Following an intravenous injection of heprin (1000 units/kg), blood from the distal end of the cannulated carotid artery was pumped into circumflex branch of the left coronary artery using a servocontrolled peristaltic pump which maintained a constant perfusion pressure of 120 mmHg by means of a pump controller. An electromagnetic flow probe was inserted in the circit to record blood flow through the cannulated coronary artery. The test compounds were administered directly into the rubber tubing connected close to the coronary artery cannula."}, "[5]": {"conditions": "dog coronary artery, 10 mM 3,4-DAP"}, "[6]": {"conditions": "read-out: percent change of Cor. BF from control"}, "[7]": {"conditions": "read-out: percent change of MBP from control"}},
  "note": "Where two headings read alike, the source gives them in different places.",
  "data": [
    {"compound": "COC(=O)C1=C(C)NC(C)=C(C(=O)OCCCCCCNCC(O)COc2ccccc2)C1c1cccc([N+](=O)[O-])c1.Cl", "note": "(stereo not shown) [Example 12, 6-(2-hydroxy-3-phenoxy-propylamino)hexyl methyl 2,6-dimethyl-4-(m-nitro-phenyl)-1,4-dihydropyridine-3,5-dicarboxylate hydrochloride]", "values": [
      {"measurement": "Kb", "setting": "Beta-adrenoceptor [1]", "result": 63, "unit": "nM"},
      {"measurement": "IC50", "setting": "dog coronary artery; [5]", "result": 19, "unit": "nM"},
      {"measurement": "change in vivo at 0.3 mg/kg", "setting": "[2]; [6]", "result": 45, "unit": "%"},
      {"measurement": "change in vivo at 0.3 mg/kg", "setting": "[2]; [7]", "result": -26, "unit": "%"},
      {"measurement": "ISA (increase in HR)", "setting": "Beta-adrenoceptor [3]", "result": "-"},
      {"measurement": "IC50", "setting": "calcium channels", "result": 12, "unit": "nM"},
      {"measurement": "Ki", "setting": "calcium channels", "result": 6.15, "unit": "nM"},
      {"measurement": "Slope, ^3 H-Nitrendipine binding", "setting": "calcium channels", "result": 1.38},
      {"measurement": "IC50", "setting": "rabbit thoracic aorta", "result": 33, "unit": "nM"},
      {"measurement": "ED50", "setting": "Beta-adrenoceptor [4]", "result": 0.6, "unit": "mg/kg"},
      {"measurement": "ED100 pap (dose for 100% increase of Cor. BF; maximum response to papaverine 300 μg ia = 100%)", "setting": "left coronary artery", "result": 100, "unit": "μg ia"},
      {"measurement": "Duration of action of coronary vasodilating effect", "setting": "left coronary artery; intracoronary (ia)", "result": "> 60", "unit": "min"}
    ]},
    {"compound": "COC(=O)C1=C(C)NC(C)=C(C(=O)OCCN(C)Cc2ccccc2)C1c1cccc([N+](=O)[O-])c1", "note": "(stereo not shown) [Nicardipine, reference compound]", "values": [
      {"measurement": "IC50", "setting": "dog coronary artery; [5]", "result": 2.1, "unit": "nM"},
      {"measurement": "IC50", "setting": "calcium channels", "result": 1.6, "unit": "nM"},
      {"measurement": "Ki", "setting": "calcium channels", "result": 0.9, "unit": "nM"},
      {"measurement": "Slope, ^3 H-Nitrendipine binding", "setting": "calcium channels", "result": 0.90},
      {"measurement": "IC50", "setting": "rabbit thoracic aorta", "result": 1, "unit": "nM"}
    ]},
    {"compound": "COc1ccc(CCN(C)CCCC(C#N)(c2ccc(OC)c(OC)c2)C(C)C)cc1OC", "note": "(stereo not shown) [Verapamil, reference compound]", "values": [
      {"measurement": "IC50", "setting": "dog coronary artery", "result": 126, "unit": "nM"},
      {"measurement": "change in vivo at 0.1 mg/kg", "setting": "[2]; [6]", "result": 95, "unit": "%"},
      {"measurement": "change in vivo at 0.1 mg/kg", "setting": "[2]; [7]", "result": -23, "unit": "%"},
      {"measurement": "IC50", "setting": "rabbit thoracic aorta", "result": 75, "unit": "nM"},
      {"measurement": "ED100 pap (dose for 100% increase of Cor. BF; maximum response to papaverine 300 μg ia = 100%)", "setting": "left coronary artery", "result": 8, "unit": "μg ia"}
    ]}
  ]
}
